From patent US5266596A, “L- or DL-threo-3-(3,4-dihydroxyphenyl)serine for the treatment of urinary incontinence” (priority 1991, dated 1993)

Tests used:
[1] = tested on: circulating system; conditions: cited from earlier work
[2] = Acute toxicity (LD50) in mouse; conditions: in vivo
[3] = in vivo; cited from earlier work
[4] = tested on: patients; conditions: conventional use; cited from earlier work
[5] = tested on: aromatic L-amino acid decarboxylase; conditions: cited from earlier work
[6] = tested on: patients with urinary incontinence; assay: Clinical test of L-threo-DOPS in patients with urinary incontinence (clinical effect and side effects); assay type: in vivo, human
Experimental: L-Threo-DOPS was administered (100 mg×3 times, a 4 weeks) to 13 patients with urinary incontinence in the clinic of urology. For estimating the effect on urinary incontinence and side effects, the patients were investigated medically before and after the treatment with L-Threo-Dops. […] Further, by urodynamic study, the patients were classified into urgent urinary incontinence (7 patients), stress urinary incontinence (3 patients) and other condition (3 patients).

[7] = tested on: urinary bladder; assay: Inner pressure of urinary bladder and urethra measured before and after administration (urodynamics); assay type: in vivo, human; conditions: some cases
Experimental: L-Threo-DOPS was administered (100 mg×3 times, a 4 weeks) to 13 patients with urinary incontinence in the clinic of urology. For estimating the effect on urinary incontinence and side effects, the patients were investigated medically before and after the treatment with L-Threo-Dops. The patients were 6 males and 7 females in the range of 35 to 76 years old, and were 51.8 years old in average. Further, by urodynamic study, the patients were classified into urgent urinary incontinence (7 patients), stress urinary incontinence (3 patients) and other condition (3 patients).

[8] = tested on: Harmalin-induced tremor; conditions: in vivo; cited from earlier work
[9] = all 13 patients, 100 mg×3 times, 4 weeks
[10] = all of the cases, summary statement

NC[C@H](O)c1ccc(O)c(O)c1 [1-NA, 1-noradrenaline]
Duration ([1]; after injection): shorter, rather instantaneous | Effects on circulating system ([1]; immediately after injection): drastic effects on circulating system to cause hypertension and palpitation

N[C@H](C(=O)O)[C@H](O)c1ccc(O)c(O)c1 (relative stereo) [active ingredient, DL- or L-threo-3-(3,4-dihydroxyphenyl)serine]
LD50 ([2]; ip, intraperitoneal): ~10000 mg/kg | LD50 ([2]; oral): ≥ 10000 mg/kg

N[C@H](C(=O)O)[C@H](O)c1ccc(O)c(O)c1 (relative stereo) [DL- or L-threo-DOPS, DL- or L-threo-3-(3,4-dihydroxyphenyl)serine]
Conversion into 1-NA after administration [3]: gradually converted into 1-NA | Distribution after administration [3]: distributed both centrally and peripherally

CN(C)CCCN1c2ccccc2CCc2ccccc21 [Imipramine]
Side effects [4]: side effects such as thirst, constipation and nasal obstruction

N[C@H](C(=O)O)[C@H](O)c1ccc(O)c(O)c1 [L-threo-DOPS, L-threo-3-(3,4-dihydroxyphenyl)serine]
Decarboxylation by aromatic L-amino acid decarboxylase to natural 1-noradrenaline [5]: undergo decarboxylation by the action of aromatic L-amino acid decarboxylase to produce natural 1-noradrenaline | Side effect ([6]; Case 1, 300 mg/day × 4 weeks): None | Side effect ([6]; Case 2, 300 mg/day × 4 weeks): None | Side effect ([6]; Case 3, 300 mg/day × 4 weeks): None | Side effect ([6]; Case 4, 300 mg/day × 4 weeks): None | Side effect ([6]; Case 5, 300 mg (3) × 4 weeks): None | Side effect ([6]; Case 6, 300 mg (3) × 4 weeks): None | Side effect ([6]; Case 7, 300 mg (3) × 4 weeks): None | Clinical effect ([6]; Case 7, urgent urinary incontinence, 300 mg (3) × 4 weeks): improved | Side effect ([6]; Case 8, 300 mg (3) × 4 weeks): None | Clinical effect ([6]; Case 8, stress incontinence, 300 mg (3) × 4 weeks): improved | Side effect ([6]; Case 9, 300 mg/day × 4 weeks): None | Clinical effect ([6]; Case 9, stress incontinence, 300 mg/day × 4 weeks): Improved | Side effect ([6]; Case 10, 300 mg/day × 4 weeks): None | Side effect ([6]; Case 11, 300 mg/day × 4 weeks): None | Side effect ([6]; Case 12, 300 mg/day × 4 weeks): None | Side effect ([6]; Case 13, 300 mg/day × 4 weeks): None | Clinical effect ([6]; Case 13, Enuresis, 300 mg/day × 4 weeks): Improved | Cases with disappearance of the symptoms or improvement to a moderate degree or more, total [6, 9]: 9 cases | Remaining cases in which L-threo-DOPS was almost ineffective [6, 9]: 4 cases | Side effects such as urine discharge disturbance, palpitation and hypertension ([6]; all cases, 100 mg×3 times, 4 weeks): not noted | Side effects [6, 10]: no side effects were noted | Tendency of dysuria [6, 10]: even tendency of dysuria was not noted | Cases with clinical effect of more than a slight improvement ([6]; all patients, 100 mg×3 times, 4 weeks): 10 out of 13 | Cases with disappearance of the symptoms or improvement to a moderate degree or more ([6]; other condition, 100 mg×3 times, 4 weeks): 2 out of 3 | Patient satisfaction ([6]; patients improved, 100 mg×3 times, 4 weeks): highly satisfactory | Cases with disappearance of the symptoms or improvement to a moderate degree or more ([6]; stress urinary incontinence, 100 mg×3 times, 4 weeks): 2 out of 3 | Effect on urinary incontinence ([6]; summary statement): excellent effect on urinary incontinence | Cases with disappearance of the symptoms or improvement to a moderate degree or more ([6]; urgent urinary incontinence, 100 mg×3 times, 4 weeks): 5 out of 7 | Volume of the urinary bladder [7]: increased volume of the urinary bladder was confirmed | Action on Harmalin-induced tremor [8]: inhibitory action on Harmalin-induced tremor
